Results reported in patent publication US8834423B2, “Dissolvable microneedle arrays for transdermal delivery to human skin” (University of Pittsburgh—of the Commonwealth System of …, priority 2009, dated 2014).

Test system: epidermal cells
Conditions: 5 mg/g of CMC, pyramidal array applied 5 minutes, 72 hours of exposure
Experimental: This is a therapeutically relevant concentration based on the area of skin targeted, yet well below levels associated with systemic toxicities. […] Arrays and residual material were removed 5 minutes after application, and after 72 hours of exposure, culture living skin explants were cryo-sectioned and fixed.

**Q.** How did the “apoptosis (TUNEL) in skin sections” value turn out when `O=P1(N(CCCl)CCCl)NCCCO1` (stereo not shown) [CYTOXAN, cyclophosphamide] was run?
**A.** Its value is “extensive apoptosis of epidermal cells”.
